These results are taken from US7094909B2, “HIV protease inhibitors, compositions containing the same, their pharmaceutical uses and materials for their synthesis” (priority 2001, dated 2006).

For test [1], the target named is T1, HIV-1 protease (Q7S mutant form) (Human immunodeficiency virus type 1 group M subtype B, UniProt P04585, Q495S).
T1 construct: made in house
The test can be described thus: HIV-1 Protease RET assay. As to conditions: Ave. Ki (nM), RET assay, Q7S enzyme, Morrison tight binding fit. It counts as biochemical. An outline of the steps: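 Q7S HIV-1 protease, refolded from urea, 2 nM active dimer with 5 μM EDANS/DABCYL peptide cleaved at Tyr-Pro; fluorescence 340/490 nm. 12 min at 37 °C in 0.1M sodium acetate pH 4.8, 1M NaCl, 10% DMSO. Ki from Morrison tight-binding fit.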

Test [2] has as its system HIV-1 (HIV-1 RF, HIV-1 NL4-3) in CEM-SS / MT-2 cells. The test can be described thus: Cytopathic effect (CPE) inhibition assay (XTT/MTT dye reduction). The class given is cell-based. An outline of the steps:
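CEM-SS or MT-2 cells were infected with HIV-1 RF or NL4-3 (moi 0.025–0.819) and plated at 2×10^4 cells/well with half-log compound dilutions for 6 days. Viability was read by XTT formazan at 450 nm after 4 h. EC50 restores formazan to 50% of uninfected untreated cells, CC50 halves it in uninfected cells, and TI = CC50/EC50.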
In general terms: Damage to the host cells serves as the signal in cytopathic effect assays.

Test [3] relates to HIV-1 NL4-3 or HIV-1 NL4-3(I84V/L90M). Nature of the test: Susceptibility assay, p24 ELISA in infected MT-2 cells. The class given is cell-based. As to conditions: Human immunodeficiency virus 1, NL43, MT2, read-out: EC50 or IC50 (mM), values without asterisk (EC50). As for the experimental part: T-cell lines, CEM-SS, and MT-2, and viruses HIV-1 RF and HIV-1 NL4-3 (pNL4-3) were obtained from the National Institutes of Health (AIDS Research and Reference Reagent Program, Bethesda, Md.).
Compounds were tested in phenotypic susceptibility assays at Virologic, Inc., (See Petropoulos C. J., Parkin N. T., Limoli K. L., Lie Y. S., Wrin T., Huang W., Tian H., Smith D., Winslow G. A., Capon D J, Whitcomb J M. 2000, “A novel phenotypic drug susceptibility assay for human immunodeficiency virus type 1,” Antimicrob Agents Chemother 44(4):920–928) or using the assay described here. MT-2 cells were infected with either HIV-1 NL4-3 or HIV-1 NL4-3([…]) and incubated in the presence of serial 0.5 log dilutions of test compounds. Three days later, culture supernatants were collected and virus production, as determined by p24 ELISA, was assayed. Percent inhibition was calculated as p24 concentration in compound-treated samples as compared to infected, compound-free controls. Inhibition of viral replication is determined by measuring reduction in HIV p24 present in the culture supernatant, using a Beckman-Coulter p24HIV-1 Ag EIA kit and following the supplied protocol. Absorbance is read on a MRX microplate reader (Dynex Technologies). The EC50 was calculated as the concentration of compound that effected a decrease in the p24 production by infected, compound-treated cells to 50% of that produced by infected, compound-free cells.
On the technique in general: In an ELISA, binding on a coated surface is turned into a signal by an enzyme label.

[4] abbreviates: Human immunodeficiency virus 1, NL43, read-out: Ave CPE EC50.

Read-outs that look alike come from different tables or passages of the source.

A word on the Ki: it is a dissociation constant, usually derived from enzyme kinetics or from competition with a known ligand. Read a low Ki as higher affinity. As a reminder, the EC50 is the midpoint of the concentration-response curve. As to `Cc1c(O)cccc1C(=O)N[C@@H](Cc1ccccc1)[C@H](O)C(=O)N1CC(F)(F)C(C)(C)[C@H]1C(=O)NCC(C)C` [Example C21, 4,4-Difluoro-1-[2-hydroxy-3-(3-hydroxy-2-methyl-benzoylamino)-4-phenyl-butyryl]-3,3-dimethyl-pyrrolidine-2-carboxylic acid isobutyl-amide], the inhibitory constant (Ki) in test [1] is < 0.1 nM. For the same compound, the concentration for a half-maximal effect (EC50) was 15 nM in test [2] (setting [4]) and 81 nM in test [3].
In the case of `Cc1c(O)cccc1C(=O)N[C@@H](Cc1ccccc1)[C@H](O)C(=O)N1CC(F)(F)C(C)(C)[C@H]1C(=O)NCc1cccs1` [Example C22, (S)-4,4-Difluoro-1-[(2S,3S)-2-hydroxy-3-(3-hydroxy-2-methyl-benzoylamino)-4-phenyl-butyryl]-3,3-dimethyl-pyrrolidine-2-carboxylic acid (thiophen-2-ylmethyl)-amide], the inhibitory constant (Ki) in test [1] was < 0.1 nM. Also, the EC50 in test [2] (setting [4]) turned out to be 15 nM; in test [3], 62 nM.
For `Cc1c(O)cccc1C(=O)N[C@@H](Cc1ccccc1)[C@H](O)C(=O)N1CC(F)(F)C(C)(C)[C@H]1C(=O)NCC(F)(F)F` [Example C23, (S)-4,4-Difluoro-1-[(2S,3S)-2-hydroxy-3-(3-hydroxy-2-methyl-benzoylamino)-4-phenyl-butyryl]-3,3-dimethyl-pyrrolidine-2-carboxylic acid (2,2,2-trifluoro-ethyl)-amide], in that order: < 0.1 nM, 37 nM and 109 nM.
As for `Cc1c(O)cccc1C(=O)N[C@@H](Cc1ccccc1)[C@H](O)C(=O)N1CC(F)(F)C(C)(C)[C@H]1C(=O)N[C@H]1CCOc2ccccc21` [Example C24, (S)-4,4-Difluoro-1-[(2S,3S)-2-hydroxy-3-(3-hydroxy-2-methyl-benzoylamino)-4-phenyl-butyryl]-3,3-dimethyl-pyrrolidine-2-carboxylic acid (S)-1-benzopyran-4-y], the inhibition constant Ki in test [1] is < 0.1 nM. The values for the EC50 in test [2] (setting [4]) and in test [3] were 19 nM and 74 nM, respectively.
For `COc1ccc(CNC(=O)[C@H]2N(C(=O)[C@@H](O)[C@H](Cc3ccccc3)NC(=O)c3cccc(O)c3C)CC(F)(F)C2(C)C)cc1` [Example C25, (S)-4,4-Difluoro-1-[(2S,3S)-2-hydroxy-3-(3-hydroxy-2-methyl-benzoylamino)-4-phenyl-butyryl]-3,3-dimethyl-pyrrolidine-2-carboxylic acid 4-methoxy-benzylamide], in that order: < 0.1 nM, 31 nM and 68 nM.
Take `Cc1c(O)cccc1C(=O)N[C@@H](Cc1ccccc1)[C@H](O)C(=O)N1CC(F)(F)C(C)(C)[C@H]1C(=O)NCc1ccc2c(c1)OCO2` [Example C26, (S)-4,4-Difluoro-1-[(2S,3S)-2-hydroxy-3-(3-hydroxy-2-methyl-benzoylamino)-4-phenyl-butyryl]-3,3-dimethyl-pyrrolidine-2-carboxylic acid (1,3-benzodioxol-5-ylmethyl)-amide]: the Ki in test [1] was < 0.1 nM. The values for the EC50 in test [2] (setting [4]) and in test [3] were 76 nM and 131 nM, respectively.
`Cc1c(O)cccc1C(=O)N[C@@H](Cc1ccccc1)[C@H](O)C(=O)N1COC(C)(C)[C@H]1C(=O)N[C@H]1CCc2ccccc21` [Example C27, (S)-3-((2S,3S)-2-Hydroxy-3-{[1-(3-hydroxy-2-methyl-phenyl)-methanoyl]-amino}-4-phenyl-butanoyl)-5,5-dimethyl-oxazolidine-4-carboxylic acid (S)-indan-1-ylamide] showed a Ki in test [1] of 0.13 nM. The EC50 in test [2] (setting [4]) stood at 115 nM; in test [3], 189 nM.
Taken in the same sequence, the figures for `Cc1c(O)cccc1C(=O)N[C@@H](Cc1ccccc1)[C@H](O)C(=O)N1COC(C)(C)[C@H]1C(=O)N[C@@H]1C=CCCC1` [Example C29, (S)-3-((2S,3S)-2-Hydroxy-3-{[1-(3-hydroxy-2-methyl-phenyl)-methanoyl]-amino}-4-phenyl-butanoyl)-5,5-dimethyl-oxazolidine-4-carboxylic acid (S)-cyclohex-2-enylamide] were 0.18 nM, 142 nM and 1360 nM.
As for `Cc1ccccc1CNC(=O)[C@H]1N(C(=O)[C@@H](O)[C@H](Cc2ccccc2)NC(=O)c2cccc(O)c2C)CSC12CCCC2` [Example C30, 3-(2-Hydroxy-3-{[1-(3-hydroxy-2-methyl-phenyl)-methanoyl]-amino}-4-phenyl-butanoyl)-1-thia-3-aza-spiro [4.4]nonane-4-carboxylic acid 2-methyl-benzamide], the Ki in test [1] was < 0.1 nM. The values for the concentration giving a half-maximal response (EC50) in test [2] (setting [4]) and in test [3] were 18 nM and 273 nM, respectively.
For `Cc1ccccc1CNC(=O)[C@H]1N(C(=O)[C@@H](O)[C@H](Cc2ccccc2)NC(=O)c2cccc(O)c2C)CSC12CCCCC2` [Example C31, 3-(2-Hydroxy-3-{[1-(2-methyl-3-hydroxy-phenyl)-methanoyl]-amino}-4-phenyl-butanoyl)-1-thia-3-aza-spiro[4.5]decane-4-carboxylic acid 2-methyl-benzylamide], in that order: 0.17 nM, 31 nM and 1070 nM.
For `Cc1ccccc1CNC(=O)[C@H]1N(C(=O)[C@@H](O)[C@H](Cc2ccccc2)NC(=O)c2cccc(O)c2C)CSC12CCC2` [Example C32, 7-(2-Hydroxy-3-{[1-(3-hydroxy-2-methyl-phenyl)-methanoyl]-amino}-4-phenyl-butanoyl)-5-thia-7-aza-spiro[3.4]octane-8-carboxylic acid-2-methyl benzylamide], in that order: < 0.1 nM, 9 nM and 190 nM.
For `CCCNC(=O)[C@H]1N(C(=O)[C@@H](O)[C@H](Cc2ccccc2)NC(=O)c2cccc(O)c2C)CSC12CCCC2` [Example C33, (R)-3-((2S,3S)-2-Hydroxy-3-{[1-(3-hydroxy-2-methyl-phenyl)-methanoyl]-amino}-4-phenyl-butanoyl)-1-thia-3-aza-spiro[4.4]nonane-4-carboxylic acid propylamide], in that order: 0.13 nM, 45 nM and 1270 nM.
Consider `C/C=C(\C)CNC(=O)[C@H]1N(C(=O)[C@@H](O)[C@H](Cc2ccccc2)NC(=O)c2cccc(O)c2C)CSC12CCCC2` [Example C34, (R)-3-((2S,3S)-2-Hydroxy-3-{[1-(3-hydroxy-2-methyl-phenyl)-methanoyl]-amino}-4-phenyl-butanoyl)-1-thia-3-aza-spiro[4.4]nonane-4-carboxylic acid ((E)-2-methyl-but-2-enyl)-amide], for which the inhibition constant (Ki) in test [1] is < 0.1 nM. In addition, the concentration for a half-maximal effect (EC50) turned out to be 22 nM in test [2] (Human immunodeficiency virus 1, NL43, read-out: Ave CPE EC50 (mM)) and 627 nM in test [3].
For the compound `Cc1ccc(F)cc1CNC(=O)[C@H]1N(C(=O)[C@@H](O)[C@H](Cc2ccccc2)NC(=O)c2cccc(O)c2C)CSC12CCCC2` [Example C36, (R)-3-((2S,3S)-2-Hydroxy-3-{[1-(3-hydroxy-2-methyl-phenyl)-methanoyl]-amino}-4-phenyl-butanoyl)-1-thia-3-aza-spiro[4.4]nonane-4-carboxylic acid 5-fluoro-2-methyl-benzylamide], in test [1], the inhibition constant (Ki) was < 0.1 nM. Further, the results for the half-maximal effective concentration (EC50) in test [2] (setting [4]) and in test [3] were 50 nM and 666 nM, respectively.
Turning to `Cc1c(O)cccc1C(=O)N[C@@H](Cc1ccccc1)[C@H](O)C(=O)N1CSC2(CCCC2)[C@H]1C(=O)N[C@H]1CCCc2ccccc21` [Example C37, (R)-3-((2S,3S)-2-Hydroxy-3-{[1-(3-hydroxy-2-methyl-phenyl)-methanoyl]-amino}-4-phenyl-butanoyl)-1-thia-3-aza-spiro[4.4]nonane-4-carboxylic acid (1,2,3,4-tetrahydro-naphthalen-1-yl)-amide], in test [1], the inhibition constant (Ki) worked out at 0.61 nM. The EC50 in test [2] (setting [4]) worked out at 27 nM; in test [3], 1290 nM.
For `CCCNC(=O)[C@H]1N(C(=O)[C@@H](O)[C@H](Cc2ccccc2)NC(=O)c2cccc(O)c2C)CSC12CCC2` [Example C38, (R)-7-((2S,3S)-2-Hydroxy-3-{[1-(3-hydroxy-2-methyl-phenyl)-methanoyl]-amino}-4-phenyl-butanoyl)-5-thia-7-aza-spiro[3.4]octane-8-carboxylic acid propylamide], in that order: < 0.1 nM, 42 nM and 1310 nM.
